Columns and labels:
[1] = Antagonist activity at CCR5 in human peripheral blood lymphocytes cells assessed as inhibition of HIV-1 Ba-L infection
[2] = Antagonist activity at CCR5 in HOS cells assessed as inhibition of HIV-1 Ba-L infection

Row | SMILES | IC50 [1] [nM] | IC50 [2] [nM]
1 | C=CCN(C(=O)OCc1ccc(S(C)(=O)=O)cc1)C1CCN(CCC2(c3cccc(F)c3)CCN(C(=O)c3cc(S(=O)(=O)NC(C)(C)C)c(F)cc3Cl)CC2)CC1 [4-(methylsulfonyl)benzyl allyl(1-(2-(1-(5-(N-tert-butylsulfamoyl)-2-chloro-4-fluorobenzoyl)-4-(3-fluorophenyl)piperidin-4-yl)ethyl)piperidin-4-yl)carbamate] | 4.5 | 17
2 | C=CCN(C(=O)Nc1ccc(S(C)(=O)=O)cc1)C1CCN(CCC2(c3cccc(F)c3)CCN(C(=O)c3cc(S(=O)(=O)NC(C)(C)C)c(F)cc3Cl)CC2)CC1 [5-(4-(2-(4-(1-allyl-3-(4-(methylsulfonyl)phenyl)ureido)piperidin-1-yl)ethyl)-4-(3-fluorophenyl)piperidine-1-carbonyl)-N-tert-butyl-4-chloro-2-fluorobenzenesulfonamide] | 35 | 11.5

— BindingDB's records for doi:10.1016/j.bmcl.2010.10.033 (Glaxosmithkline, 2010)
